Data: patent US20230225990A1, “DIMETHYL SULFONE FOR TREATMENT OF CHRONICALLY HEAT STRESSED POULTRY” (Evonik Operations GmbH, priority 2020, published 2023)
Marks after values point to notes of the source that are not given here.

Test system: male broilers subjected to chronic cyclic heat stress
Assay: Animal performance (BW, ADG, ADFI, F:G, mortality, EPEF) with chronic cyclic heat stress in the finisher phase
Type: in vivo, broiler chickens (Ross 308)
Settings: for FIhs (percentage of total feed intake consumed during hours of heat stress): 6 h heat stress per day, d-24 till d-39; for F:G corrected: total d0-d39, corrected to final body weight of 3050 g
Source text: The experimental design consisted of one control group (T1) and two other groups receiving the control diet supplemented with increasing levels of DMS (dimethyl sulfone), specifically 0.1% DMS (T2) and 0.2% DMS (T3). Treatments were replicated in 12 pens each in a completely randomized block design. Block refers to physical allocation in the experimental facility. All the animal trial was realized in compliance with the Ethics Committee of Faculty of Veterinary Medicine (Ghent University, EC2018-71).
The experiment was conducted at the experimental facilities of the Department of Animal Sciences and Aquatic Ecology of Ghent University, located in Melle, Belgium. A total of 792 male broiler chickens (Ross 308, Aviagen Group) were provided by Vervaeke-Belavi hatchery (Tielt, Belgium). Larger treatment effects are expected with males, as they are more sensitive to heat stress (HS) (Cahaner and Leenstra, 1992). The experiment consisted in three rearing phases: starter (from d-0 to d-10), grower (from d-10 to d-21) and finisher (from d-21 to d-39). The one-day old chicks were weighted and equally spread among the pens according to their body weight (BW). Pens were randomly allocated to the treatment groups. The initial average animal BW was 41.3±0.31 g at the beginning of the experiment. The newly selected chicks were housed in a single climate-controlled room, which contained 36 pens of 22 animals each. […] The room was equipped with liner drinkers (two nipples per pen), and each pen had one tube-type metallic feeder. Temperature in starter and grower phase was set to decrease linearly from 34° C., at d-0 until a basal temperature of 22° C., at d-24. The light of the room was turned on 23 h in period d-0 to d-7, and then turned on at 4:00 and switched off at 22:00 during the rest of the experiment (18L:6D).
The finisher period started at d-21, and the chronic cyclic heat stress (HS) protocol was applied from d-24 until d-39. Starting from d-24, the temperature was increased from 22° C. to 34° C. for 6 hours per day (from 9:00 to 15:00) with relative air humidity (RH) between 52 and 58%. From 8:00 to 9:00, the temperature was increased from 22° C. to 34° C., and from 15:00 to 16:00, the temperature was decreased from 34° C. to 22° C. The rest of the day the temperature was 22° C. The room was equipped with heaters with thermostats, and air circulators to enable the desired temperature and RH to be maintained, providing sufficient ventilation and air conditions. RH was adjusted with manual spraying of water on stable walls, periodically. The temperature and the RH were recorded at 10-min intervals with a dry bulb thermo-hygrometer (Escort RH iLog, Escort Verification Technologies Inc., Buchanan, United States).
Wheat and soybean meal-based feeds were formulated to meet the nutrient requirements of broiler chickens, according to Ross308 recommendations or slightly lower to avoid excessive mortality in the finisher phase. […] The final formulation was approved by the commissioner. The test substance dimethyl sulfone was added on top at 0.1 and 0.2% in T2 and T3 in all rearing phases, respectively. Diets were processed by Research Dietary Services (RDS, Wijk bij Duurstede, The Netherlands) and delivered to Ghent University. All the diets were provided as pellets during all rearing phases. The chickens were fed ad libitum and had free access to water during the whole experiment.
For all performance indices, the pen is the experimental unit. Total feed intake (FI) was recorded for each rearing period. In addition, FI during HS period was recorded every day, weighing the feeders before (at 8:00) and after (at 16:00) HS every day. That allows the calculation of the relative FI during period with HS relative to the total FI for each day during HS (d-24 to d-39). The total body weight (BW) of each pen was recorded at d-0, d-10, d-21 and d-39, and divided by the number of chickens in the pen at that day to have the average BW for each pen. […]

[1] = 0.1% DMS in diet (T2), d-24 to d-39, excluding pen 24
[2] = 0.1% DMS in diet (T2), finisher d21-d39, heat stress d-24 till d-39
[3] = 0.1% DMS in diet (T2), grower d10-d21
[4] = 0.1% DMS in diet (T2), starter d0-d10
[5] = 0.1% DMS in diet (T2), total d0-d39
[6] = 0.2% DMS in diet (T3), d-24 to d-39, excluding pen 24
[7] = 0.2% DMS in diet (T3), finisher d21-d39, heat stress d-24 till d-39
[8] = 0.2% DMS in diet (T3), grower d10-d21
[9] = 0.2% DMS in diet (T3), starter d0-d10
[10] = 0.2% DMS in diet (T3), total d0-d39

## CS(C)(=O)=O [DMS, dimethyl sulfone]
0.1% DMS in diet (T2)
  FIhs (percentage of total feed intake consumed during hours of heat stress): 27.9%
  F:G corrected: 1.54
[1]
  Cases of mortality: 10
  Cases of mortality+culling: 12
0.1% DMS in diet (T2), d-24 to d-39, pen 24 included
  Cases of mortality+culling: 17
[2]
  ADFI: 179 g/day
  ADG: 106 g/day
  F:G: 1.71
  Final BW: 3100 g
  Mortality: 4.7%
  Mortality + culling: 6.0%
[3]
  ADFI: 103 g/day
  ADG: 75.5^a g/d
  ADG higher as compared to control: 2.6%
  F:G: 1.36^b
  F:G reduced as compared to control: 6 points
  Final BW: 1189 g
  Mortality: 1.1%
  Mortality + culling: 1.1%
[4]
  ADFI: 32.5 g/day
  ADG: 31.7 g/day
  F:G: 1.03
  Final BW: 359 g
  Mortality: 0.0%
  Mortality + culling: 0.0%
[5]
  ADFI: 116 g/day
  ADG: 78.4 g/day
  EPEF (European production efficiency factor): 488
  F:G: 1.53
  Mortality: 5.9%
  Mortality + culling: 7.3%
0.2% DMS in diet (T3)
  FIhs (percentage of total feed intake consumed during hours of heat stress): 27.9%
  F:G corrected: 1.54
[6]
  Cases of mortality: 8
  Cases of mortality+culling: 8
0.2% DMS in diet (T3), d-24 to d-39, pen 24 included
  Cases of mortality+culling: 8
[7]
  ADFI: 178 g/day
  ADG: 104 g/day
  F:G: 1.72
  Final BW: 3066 g
  Mortality: 3.1%
  Mortality + culling: 3.1%
[8]
  ADFI: 102 g/day
  ADG: 76.1^a g/d
  ADG higher as compared to control: 3.4%
  F:G: 1.35^b
  F:G reduced as compared to control: 7 points
  Final BW: 1194 g
  Mortality: 0.4%
  Mortality + culling: 0.8%
[9]
  ADFI: 32.3 g/day
  ADG: 31.6 g/day
  F:G: 1.03
  Final BW: 357 g
  Mortality: 0.8%
  Mortality + culling: 0.8%
[10]
  ADFI: 117 g/day
  ADG: 77.6 g/day
  EPEF (European production efficiency factor): 491
  F:G: 1.54
  Mortality: 4.2%
  Mortality + culling: 4.5%
